{"source": "patent US7232673B2", "about": "“Antimicrobial protein from Lyophyllum shimeji” (Japan Tobacco Inc., priority 1999, dated 2007)", "test_in_all_cases": "Pyranose oxidase activity (properties of pyranose oxidase, method of Nishimura et al. 1996)", "key": {"[1]": {"target": "T1, Lyophyllum shimeji antimicrobial protein (pyranose oxidase), native, purified MonoQ fractions Nos. 42-44 containing the 65 kDa + 70 kDa proteins, SEQ ID NO:2 (Lyophyllum shimeji, UniProt Q75ZP8)", "T1 construct": "MonoQ fractions 42-44 holding the 70 kDa precursor (1-618) and 65 kDa mature form (76-618), both from a single gene; not the His-tagged E. coli product", "T1 sequence (Q75ZP8 76-618)": "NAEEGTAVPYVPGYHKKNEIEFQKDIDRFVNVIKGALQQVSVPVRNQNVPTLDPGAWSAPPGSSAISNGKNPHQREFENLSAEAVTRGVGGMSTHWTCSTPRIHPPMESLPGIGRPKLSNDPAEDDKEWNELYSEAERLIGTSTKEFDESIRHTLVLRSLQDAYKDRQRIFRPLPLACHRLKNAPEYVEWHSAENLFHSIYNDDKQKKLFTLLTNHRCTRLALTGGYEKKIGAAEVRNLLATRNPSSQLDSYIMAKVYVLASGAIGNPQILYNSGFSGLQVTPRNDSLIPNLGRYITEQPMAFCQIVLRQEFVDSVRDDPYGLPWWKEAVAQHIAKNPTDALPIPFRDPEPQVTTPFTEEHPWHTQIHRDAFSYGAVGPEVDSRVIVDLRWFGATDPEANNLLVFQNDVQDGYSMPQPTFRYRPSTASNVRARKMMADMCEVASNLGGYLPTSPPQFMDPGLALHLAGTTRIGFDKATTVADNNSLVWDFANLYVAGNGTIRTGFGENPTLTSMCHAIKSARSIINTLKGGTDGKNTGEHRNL", "assay_type": "biochemical", "conditions": "result in words", "protocol": "(§1) The amino acid sequences thus determined were searched for in a data base. […] Thus, the pyranose oxidase activity of each MonoQ fraction was measured in accordance with the method of Nishimura et al. (1996). […] Accordingly, it is estimated that the antimicrobial activity would be derived from hydrogen peroxide formed during the oxidation of glucose in the medium by this enzyme. Next, the fractions containing both of the 65 kDa and 70 kDa proteins (FIG. 2 Nos. 42–44) were exclusively concentrated and properties of pyranose oxidase were analyzed. […] The amount of the enzyme proteins (65 kDa+70 kDa) was determined by SDS-PAGE silver staining."}, "[2]": {"substrate": "OC[C@H]1OC(O)[C@H](O)[C@@H](O)[C@@H]1O", "assay_type": "biochemical, Lyophyllum shimeji", "conditions": "other: native L. shimeji enzyme protein (65 kDa+70 kDa), table footnote (activity unit): pH 7.0, 37° C.", "protocol": "as §1"}, "[3]": {"substrate": "OC[C@H]1OC[C@H](O)[C@@H](O)[C@@H]1O", "assay_type": "biochemical, Lyophyllum shimeji", "conditions": "other: native L. shimeji enzyme protein (65 kDa+70 kDa), table footnote (activity unit): pH 7.0, 37° C.", "protocol": "as §1"}}}
{"molecule": "OC[C@H]1OC[C@H](O)[C@@H](O)[C@@H]1O", "note": "[1,5-Anhydroglucitol]", "values": [{"measurement": "Km values to 1,5-anhydroglucitol", "setting": "[1]", "result": "low"}]}
{"molecule": "OC[C@H]1OC(O)[C@H](O)[C@@H](O)[C@@H]1O", "note": "(stereo partly shown) [Glucose]", "values": [{"measurement": "Km values to glucose", "setting": "[1]", "result": "low"}]}
{"molecule": "Lyophyllum shimeji antimicrobial protein (pyranose oxidase), native, purified MonoQ fractions Nos. 42-44 containing the 65 kDa + 70 kDa proteins, SEQ ID NO:2 … (protein, MonoQ fractions 42-44 holding the 70 kDa precursor (1-618) and 65 kDa mature form (76-618), both from a single gene; not the His-tagged E. coli product) NAEEGTAVPYVPGYHKKNEIEFQKDIDRFVNVIKGALQQVSVPVRNQNVPTLDPGAWSAPPGSSAISNGKNPHQREFENLSAEAVTRGVGGMSTHWTCSTPRIHPPMESLPGIGRPKLSNDPAEDDKEWNELYSEAERLIGTSTKEFDESIRHTLVLRSLQDAYKDRQRIFRPLPLACHRLKNAPEYVEWHSAENLFHSIYNDDKQKKLFTLLTNHRCTRLALTGGYEKKIGAAEVRNLLATRNPSSQLDSYIMAKVYVLASGAIGNPQILYNSGFSGLQVTPRNDSLIPNLGRYITEQPMAFCQIVLRQEFVDSVRDDPYGLPWWKEAVAQHIAKNPTDALPIPFRDPEPQVTTPFTEEHPWHTQIHRDAFSYGAVGPEVDSRVIVDLRWFGATDPEANNLLVFQNDVQDGYSMPQPTFRYRPSTASNVRARKMMADMCEVASNLGGYLPTSPPQFMDPGLALHLAGTTRIGFDKATTVADNNSLVWDFANLYVAGNGTIRTGFGENPTLTSMCHAIKSARSIINTLKGGTDGKNTGEHRNL", "values": [{"measurement": "Km", "setting": "[2]", "result": 0.50, "unit": "mM"}, {"measurement": "Km", "setting": "[3]", "result": 6.5, "unit": "mM"}]}
